# Assay results published in article PMC11784026, “Phase 1 study of the safety, tolerability, and pharmacokinetics of a synthetic macrocyclic peptide antibiotic (BRII-693) in healthy adult participants” (Antimicrobial Agents and Chemotherapy, 2024).
# Read-outs that look alike come from different tables or passages of the source. Where a SMILES comes first, the peptide text is derived from it. Bridges are numbered along the chain shown (N, C = ends). [ ]: non-standard residue; d: D form. The star is where a group is joined. X1 = O=C(c1ccc(Cl)cc1Cl)*; Dab = NCC[C@H](N)C(=O)O; Abu = CC[C@H](N)C(=O)O; Dap = NC[C@H](N)C(=O)O
# Legend:
# [1] = Method: During the MAD phase of the study, repeat dosing of 100, 150, and 200 mg of BRII-693 was evaluated in sequential cohorts (cohorts 8–10) composed of eight participants each (six active; two placebo). Participants first received a single dose of BRII-693 or placebo as a 1-hour IV infusion on day 1; and then 48 hours later on day 3 through day 9, participants received BRII-693 or placebo every 6 hours (q6h) for 7 days, with the last dose in the morning on day 9. Participants were discharged on day 11. In the remaining two MAD cohorts (cohorts 11 and 12), repeat dosing of 150 mg of BRII-693 q6h for 14 days was evaluated in non-Chinese and Chinese (first and second generation) participants. Each cohort comprises 12 participants (10 active and 2 placebo). The last dose was in the morning on day 14, and participants were discharged on day 17.
# For the 7-day MAD cohorts 8–10, blood samples were collected (i) on day 1 before dosing and at 0.5, 1, 1.25, 1.5, 2, 4, 6, 8, 12, 24, 36, and 48 hours following the start of dosing infusion; (ii) on day 3 prior to the morning dose and at 0.5, 1, 1.25, 1.5, 2, 4, and 6 hours after the start of the first dosing infusion; (iii) on day 9 before dosing and at 0.5, 1, 1.25, 1.5, 2, 4, 6, 8, 12, 24, 36, and 48 hours following the start of the last dosing infusion in the morning. Urine samples were collected before dosing and at the time intervals of 0–4, 4–8, 8–12, 12–24, 24–36, and 36–48 hours after the start of dosing infusion on days 1 and 9.
# For the 14-day MAD cohorts 11 and 12, blood samples were collected (i) on day 1 prior to and at 0.5, 1, 1.25, 1.5, 2, 4, and 6 hours after the start of the first dosing infusion and (ii) on day 14 before dosing and at 0.5, 1, 1.25, 1.5, 2, 4, 6, 8, 12, 24, 36, 48, 60, and 72 hours following the start of the last dosing infusion in the morning. Urine samples were collected before dosing and at the time intervals of 0–4, 4–8, 8–12, 12–24, 24–36, 36–48, and 48–72 hours after the start of dosing infusion on Day 14.
# All blood samples were collected into EDTA-containing vials, immediately placed on ice, and centrifuged at 3,000× g for approximately 10 minutes at 4°C. Supernatant plasma was transferred to two pre-chilled cryopreservation vials (at least 1.0 mL per vial) and stored at −80°C until shipped to the analytical laboratory. Urine samples collected for each time interval were refrigerated, aliquoted, and stored at −80°C until shipped to the analytical laboratory. Plasma and urine samples were analyzed for BRII-693 concentrations using validated high-performance liquid chromatography with detection by mass spectrometry method (BioAgilytix, San Diego, CA). The assay range was 50.0–50,000 ng/mL in both plasma and urine.
# Area under the concentration-time curve (AUC) from time zero to the time of the last quantifiable concentration (AUC0–last), AUC from time zero to infinity (AUC0–inf), AUC within a dosing interval of 6 hours (AUC0–6h), maximum observed concentration (Cmax), time to reach maximum concentration (Tmax), apparent terminal half-life (t1/2), total clearance (CL), volume of distribution during terminal phase (Vz), and accumulation ratio based on AUC (ARAUC) were determined for BRII-693 in plasma. Urine parameters included amount and percentage of dose recovered in urine as unchanged drug over each collection interval and cumulatively and renal clearance (CLR). PK parameters were determined using noncompartmental methods in Phoenix WinNonlin (Certara, Version 8.3).
# Remark: listed apart in the source
compound,measurement,setting,value
CC[C@@H]1NC(=O)[C@@H](CC(C)C)NC(=O)[C@H](CCN)NC(=O)[C@@H](NC(=O)[C@H](CN)NC(=O)[C@@H](NC(=O)[C@H](CCN)NC(=O)c2ccc(Cl)cc2Cl)[C@@H](C)O)CCNC(=O)[C@H]([C@@H](C)O)NC(=O)[C@H](CCN)NC(=O)[C@H](CCN)NC1=O [BRII-693] (X1-[Dab]T[Dap][Dab][Dab][dL][Abu][Dab][Dab]T; lactam 4-C; N-terminus assumed),CLR,"[1]; Last q6h dose (day 9), 7-day MAD 100 mg q6h × 7, renal clearance, n = 6, arithmetic mean ± SD",1.40 ± 0.60 L/h
same,fe0–48h,"[1]; Last q6h dose (day 9), 7-day MAD 100 mg q6h × 7, urinary recovery over 48 h, n = 6, arithmetic mean ± SD",66.5 ± 18.0%
same,CLR,"[1]; Last q6h dose (day 9), 7-day MAD 150 mg q6h × 7, renal clearance, n = 5, arithmetic mean ± SD",1.60 ± 0.60 L/h
same,fe0–48h,"[1]; Last q6h dose (day 9), 7-day MAD 150 mg q6h × 7, urinary recovery over 48 h, n = 5, arithmetic mean ± SD",57.2 ± 19.2%
same,CLR,"[1]; Last q6h dose (day 9), 7-day MAD 200 mg q6h × 7, renal clearance, n = 5, arithmetic mean ± SD",1.41 ± 0.23 L/h
same,fe0–48h,"[1]; Last q6h dose (day 9), 7-day MAD 200 mg q6h × 7, urinary recovery over 48 h, n = 5, arithmetic mean ± SD",74.3 ± 30.3%
same,CLR,"[1]; Last q6h dose (day 14), 14-day MAD 150 mg q6h × 14, Chinese, renal clearance, n = 6, arithmetic mean ± SD",1.67 ± 0.43 L/h
same,fe0–48h,"[1]; Last q6h dose (day 14), 14-day MAD 150 mg q6h × 14, Chinese, urinary recovery over 48 h, n = 6, arithmetic mean ± SD",70.9 ± 22.0%
same,CLR,"[1]; Last q6h dose (day 14), 14-day MAD 150 mg q6h × 14, non-Chinese, renal clearance, n = 10, arithmetic mean ± SD",1.91 ± 0.79 L/h
same,fe0–48h,"[1]; Last q6h dose (day 14), 14-day MAD 150 mg q6h × 14, non-Chinese, urinary recovery over 48 h, n = 10, arithmetic mean ± SD",74.1 ± 25.6%
same,Urinary recovery compared with polymyxin B,[1]; comparison with literature polymyxin B data (ref 11),higher urinary recovery than polymyxin B
same,Participants reporting AEs,"7-day MAD cohorts 8–10, after multiple dosing, all BRII-693-treated (5 of 17)",29.4%
same,Participants reporting AEs,"7-day MAD cohorts 8–10, after single dosing on day 1, all BRII-693-treated (3 of 17)",17.6%
same,"Participants who discontinued the study due to treatment-related AE (headache, moderate)","7-day MAD, 200 mg, after the single dose on day 1 (One of 6)",16.7%
same,Participants reporting AEs,"7-day MAD, after multiple dosing, 100 mg q6h (2 of 6)",33.3%
same,Participants reporting AEs,"7-day MAD, after multiple dosing, 200 mg q6h (3 of 6)",50.0%
same,Participants reporting AEs,"7-day MAD, after single dosing on day 1, 150 mg (1 of 5)",20.0%
same,Participants reporting AEs,"7-day MAD, after single dosing on day 1, 200 mg (2 of 6)",33.3%
same,Participants reporting AEs,"SAD phase, 100 mg (1 of 6)",16.7%
same,Participants reporting AEs,"SAD phase, 200 mg (1 of 6)",16.7%
same,Severity of AEs,"SAD phase, all AEs (five events, placebo included)",mild in severity
same,Participants reporting AEs,"SAD phase, all BRII-693-treated participants (2 of 41)",4.9%
same,Participants reporting AEs,"cohort 11, 150 mg q6h × 14 days, non-Chinese (5 of 10)",50.0%
same,Participants reporting AEs,"cohort 12, 150 mg q6h × 14 days, Chinese (Five of the 10)",50.0%
same,Overall safety and tolerability,"in vivo, iv",safe and well tolerated
